This assay has as its target T1, Human plasma kallikrein (Homo sapiens, UniProt P03952).
T1 construct: yields a heavy chain (371 amino acids) and a light chain (248 amino acids); purchased Enzyme Research Laboratories
The assay is described as follows: Kallikrein Assay (fluorogenic substrate hydrolysis, AFC release). Particulars: purified Human plasma kallikrein 0.5 nM; substrate Acetyl-K—P—R-AFC 100 mM; 50 mM HEPES pH 7.4. In kind it is biochemical. As for the experimental part:
The effectiveness of a compound of the present invention as an inhibitor of Kallikrein can be determined using a relevant purified serine protease, and an appropriate synthetic substrate. The rate of hydrolysis of the chromogenic or fluorogenic substrate by the relevant serine protease was measured both in the absence and presence of compounds of the present invention. Assays were conducted at room temperature or at 37° C. […] A decrease in the rate of fluorescence change in the presence of inhibitor is indicative of enzyme inhibition. Such methods are known to one skilled in the art. The results of this assay are expressed as the half-maximal inhibitory concentrations (IC50), or the inhibitory constant, Ki.
Kallikrein determinations were made in 50 mM HEPES buffer at pH 7.4 containing 150 mM NaCl, 5 mM CaCl2), and 0.1% PEG 8000 (polyethylene glycol; Fisher Scientific). Determinations were made using purified Human plasma kallikrein at a final concentration of 0.5 nM (Enzyme Research Laboratories) and the synthetic substrate, Acetyl-K—P—R-AFC (Sigma #C6608) at a concentration of […].
Activity assays were performed by diluting a stock solution of substrate at least tenfold to a final concentration ≤0.2 Km into a solution containing enzyme or enzyme equilibrated with inhibitor. Times required to achieve equilibration between enzyme and inhibitor were determined in control experiments. The reactions were performed under linear progress curve conditions and fluorescence increase measured at 405 Ex/510 Em nm. Values were converted to percent inhibition of the control reaction (after subtracting 100% Inhibition value). IC50 was determined by inflection point from a four parameter logistic curve fit. Ki was calculated using the Cheng Prusoff equation, Ki=IC50/(1+([S]/Km)).
T1 sequence (P03952 391-638 limits assumed): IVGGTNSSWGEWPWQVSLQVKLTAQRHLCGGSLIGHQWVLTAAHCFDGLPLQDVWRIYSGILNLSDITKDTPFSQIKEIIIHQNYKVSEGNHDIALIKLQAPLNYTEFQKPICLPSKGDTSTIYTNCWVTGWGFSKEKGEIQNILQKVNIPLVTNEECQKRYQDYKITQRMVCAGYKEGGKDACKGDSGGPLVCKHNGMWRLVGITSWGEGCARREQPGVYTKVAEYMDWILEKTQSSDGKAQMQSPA
T1 sequence (P03952 20-390 partner limits assumed): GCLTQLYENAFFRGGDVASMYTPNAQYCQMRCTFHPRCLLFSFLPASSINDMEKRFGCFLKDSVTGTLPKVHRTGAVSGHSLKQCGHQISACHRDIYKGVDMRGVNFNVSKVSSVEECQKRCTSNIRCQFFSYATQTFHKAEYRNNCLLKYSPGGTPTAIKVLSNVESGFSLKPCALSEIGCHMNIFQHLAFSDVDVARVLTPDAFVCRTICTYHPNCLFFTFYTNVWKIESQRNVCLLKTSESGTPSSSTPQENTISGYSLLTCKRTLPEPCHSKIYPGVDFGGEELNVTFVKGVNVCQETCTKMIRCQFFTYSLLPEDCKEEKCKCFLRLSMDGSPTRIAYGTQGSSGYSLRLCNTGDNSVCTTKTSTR
By IC50 is commonly meant the midpoint of a concentration-inhibition curve. Low values mean inhibition by little substance, high ones a need for much substance. The compound `Cc1ncc(C(C)n2cc(C(=O)N[C@H]3C[C@@H](c4cc(Cl)ccc4C#N)C3)nn2)cc1N1C[C@H]2C[C@H]2C1=O` (single isomer, unassigned) [Example 139, N-((cis)-3-(5-chloro-2-cyanophenyl)cyclobutyl)-1-((R or S)-1-(6-methyl-5-((1R,5S)-2-oxo-3-azabicyclo[3.1.0]hexan-3-yl)pyridin-3-yl)ethyl)-1H-1,2,3-triazole-4-carboxamide] yielded an IC50 of 1.4 nM. As for `Cc1ccc(C#N)c([C@]2(C)C[C@H](NC(=O)c3cn([C@@H](C)c4cnc(N5C[C@H]6C[C@H]6C5=O)c(C)c4C)nn3)C2)c1` [Example 143, N-((cis)-3-(2-cyano-5-methylphenyl)-3-methylcyclobutyl)-1-((S)-1-(4,5-dimethyl-6-((1R,5S)-2-oxo-3-azabicyclo[3.1.0]hexan-3-yl)pyridin-3-yl)ethyl)-1H-1,2,3-triazole-4-carboxamide], the figure is 0.2 nM; as for `Cc1cc(N2C[C@H]3C[C@H]3C2=O)cnc1C(C)n1cc(C(=O)N[C@H]2C[C@@H](c3cc(Cl)ccc3C#N)C2)nn1` (single isomer, unassigned) [Example 90, N-((cis)-3-(5-chloro-2-cyanophenyl)cyclobutyl)-1-((R or S)-1-(3-methyl-5-((1R,5S)-2-oxo-3-azabicyclo[3.1.0]hexan-3-yl)pyridin-2-yl)ethyl)-1H-1,2,3-triazole-4-carboxamide], 153 nM.

`Cc1ccc(C#N)c([C@H]2C[C@@H](NC(=O)c3cnn(C(C)c4cnc(N5C[C@H]6C[C@H]6C5=O)c(C)n4)c3)C2)n1` (single isomer, unassigned) [Example 51, N-((cis)-3-(3-cyano-6-methylpyridin-2-yl)cyclobutyl)-1-((R or S)-1-(6-methyl-5-((1R,5S)-2-oxo-3-azabicyclo[3.1.0]hexan-3-yl)pyrazin-2-yl)ethyl)-1H-pyrazole-4-carboxamide] displayed an IC50 of 2.4 nM. The same measure for `Cc1cc(N2C[C@H]3C[C@H]3C2=O)nnc1C(C)n1cc(C(=O)N[C@H]2C[C@@H](c3cc(Cl)ccc3C#N)C2)cn1` (single isomer, unassigned) [Example 54, N-((cis)-3-(5-chloro-2-cyanophenyl)cyclobutyl)-1-((S or R)-1-(4-methyl-6-((1R,5S)-2-oxo-3-azabicyclo[3.1.0]hexan-3-yl)pyridazin-3-yl)ethyl)-1H-pyrazole-4-carboxamide]: 239 nM. The same measure for `CC(c1ccc(N2C[C@H]3C[C@H]3C2=O)nc1)n1cc(C(=O)N[C@H]2C[C@@H](c3cc(Cl)ccc3C#N)C2)nn1` (single isomer, unassigned) [Example 58, N-((cis)-3-(5-chloro-2-cyanophenyl)cyclobutyl)-1-((S or R)-1-(6-((1R,5S)-2-oxo-3-azabicyclo[3.1.0]hexan-3-yl)pyridin-3-yl)ethyl)-1H-1,2,3-triazole-4-carboxamide]: 5 nM; for `Cc1nc(C(C)n2cc(C(=O)N[C@H]3C[C@@](C)(c4cc(Cl)ccc4C#N)C3)nn2)cnc1N1C[C@H]2C[C@H]2C1=O` (single isomer, unassigned) [Example 110, N-((cis)-3-(5-chloro-2-cyanophenyl)-3-methylcyclobutyl)-1-((S or R)-1-(6-methyl-5-((1R,5S)-2-oxo-3-azabicyclo[3.1.0]hexan-3-yl)pyrazin-2-yl)ethyl)-1H-1,2,3-triazole-4-carboxamide]: 1.1 nM; for `Cc1cc(N2C[C@H]3C[C@H]3C2=O)ncc1[C@@H](C)c1cc(C(=O)N[C@H]2C[C@@H](c3cc(Cl)ccc3C#N)C2)n(C)n1` [Example 174, N-((cis)-3-(5-chloro-2-cyanophenyl)cyclobutyl)-1-methyl-3-((R)-1-(4-methyl-6-((1R,5S)-2-oxo-3-azabicyclo[3.1.0]hexan-3-yl)pyridin-3-yl)ethyl)-1H-pyrazole-5-carboxamide]: 26.9 nM. The same measure for `N#Cc1ccc(Cl)cc1[C@H]1C[C@@H](NC(=O)c2cn([C@H](CO)c3ccc(N4C[C@H]5C[C@H]5C4=O)nc3)nn2)C1` (single isomer, unassigned) [Example 155]: 28 nM; for `Cc1c([C@H](C)n2cc(C(=O)NC3CC(c4cccc(Cl)c4)C3O)nn2)cnc(N2C[C@H]3C[C@H]3C2=O)c1C` (single isomer, unassigned) [Example 152, N-((1S,2S,3S or 1R,2R,3R))-3-(3-chlorophenyl)-2-hydroxycyclobutyl)-1-((S)-1-(4,5-dimethyl-6-((1R,5S)-2-oxo-3-azabicyclo[3.1.0]hexan-3-yl)pyridin-3-yl)ethyl)-1H-1,2,3-triazole-4-carboxamide]: 78 nM.

`COc1cc(C(C)n2cc(C(=O)N[C@H]3C[C@@H](c4cc(C)ccc4C#N)C3)cn2)cnc1N1C[C@H]2C[C@H]2C1=O` (single isomer, unassigned) [Example 23, N-((cis)-3-(2-cyano-5-methylphenyl)cyclobutyl)-1-((R or S)-1-(5-methoxy-6-((1R,5S)-2-oxo-3-azabicyclo[3.1.0]hexan-3-yl)pyridin-3-yl)ethyl)-1H-pyrazole-4-carboxamide] gave a concentration for half-maximal inhibition (IC50) of 3.9 nM. Consider `Cc1cc(N2C[C@H]3C[C@H]3C2=O)cnc1C(C)n1cc(C(=O)N[C@H]2C[C@@H](c3cc(Cl)ccc3C#N)C2)cn1` (single isomer, unassigned) [Example 24, N-((cis)-3-(5-chloro-2-cyanophenyl)cyclobutyl)-1-((R or S)-1-(3-methyl-5-((1R,5S)-2-oxo-3-azabicyclo[3.1.0]hexan-3-yl)pyridin-2-yl)ethyl)-1H-pyrazole-4-carboxamide], for which half-maximal inhibition (IC50) required 5.1 nM. As for `Cc1c(C(C)n2cc(C(=O)NC3CC(c4cccc(Cl)c4)C3O)nn2)nnc(N2C[C@H]3C[C@H]3C2=O)c1C` (single isomer, unassigned) [Example 129, N-((1R,2R,3R or 1S,2S,3S))-3-(3-chlorophenyl)-2-hydroxycyclobutyl)-1-((R or S)-1-(4,5-dimethyl-6-((1R,5S)-2-oxo-3-azabicyclo[3.1.0]hexan-3-yl)pyridazin-3-yl)ethyl)-1H-1,2,3-triazole-4-carboxamide], the figure is 839 nM. As for `Cc1cc(N2C[C@H]3C[C@H]3C2=O)ncc1C(C)n1cc(C(=O)N[C@H]2C[C@@](C)(c3cc(Cl)ccc3C#N)C2)cn1` (single isomer, unassigned) [Example 10, N-((cis)-3-(5-chloro-2-cyanophenyl)-3-methylcyclobutyl)-1-((S or R)-1-(4-methyl-6-((1R,5S)-2-oxo-3-azabicyclo[3.1.0]hexan-3-yl)pyridin-3-yl)ethyl)-1H-pyrazole-4-carboxamide], the figure is 3.6 nM; as for `Cc1ccc(C#N)c([C@H]2C[C@@H](NC(=O)c3cn(C(C)c4cnc(N5C[C@H]6C[C@H]6C5=O)c(C)c4C)nn3)C2)c1` (single isomer, unassigned) [Example 113, N-((cis)-3-(2-cyano-5-methylphenyl)cyclobutyl)-1-((R or S)-1-(4,5-dimethyl-6-((1R,5S)-2-oxo-3-azabicyclo[3.1.0]hexan-3-yl)pyridin-3-yl)ethyl)-1H-1,2,3-triazole-4-carboxamide], 0.4 nM; as for `Cc1ccc(C#N)c([C@H]2C[C@@H](NC(=O)c3cn(C(C)c4cnc(N5C[C@H]6C[C@H]6C5=O)c(C)n4)nn3)C2)n1` (single isomer, unassigned) [Example 115, N-((cis)-3-(3-cyano-6-methylpyridin-2-yl)cyclobutyl)-1-((R or S)-1-(6-methyl-5-((1R,5S)-2-oxo-3-azabicyclo[3.1.0]hexan-3-yl)pyrazin-2-yl)ethyl)-1H-1,2,3-triazole-4-carboxamide], 22.4 nM. The compound `Cc1c([C@@H](C)n2cc(C(=O)N[C@H]3C[C@@H](c4cc(Cl)ccc4C#N)C3)nn2)nc(N2C[C@H]3C[C@H]3C2=O)n1C` (single isomer, unassigned) [Example 161] yielded an IC50 of 95.9 nM. As for `Cc1cc(N2C[C@H]3C[C@H]3C2=O)ncc1C(C)n1cc(C(=O)N[C@H]2C[C@@H](c3cc(Cl)ccc3C#N)C2)nn1` (single isomer, unassigned) [Example 59, N-((cis)-3-(5-chloro-2-cyanophenyl)cyclobutyl)-1-((R or S)-1-(4-methyl-6-((1R,5S)-2-oxo-3-azabicyclo[3.1.0]hexan-3-yl)pyridin-3-yl)ethyl)-1H-1,2,3-triazole-4-carboxamide], the figure is 0.6 nM. As for `COc1cc(N2C[C@H]3C[C@H]3C2=O)ncc1[C@@H](C)n1cc(C(=O)N[C@H]2C[C@@H](c3cc(Cl)ccc3C#N)C2)cn1` (single isomer, unassigned) [Example 12], the IC50 came to 7.7 nM. Regarding `COc1cc(C(C)n2cc(C(=O)N[C@H]3C[C@@H](c4cc(Cl)ccc4C#N)C3)cn2)cnc1N1C[C@H]2C[C@H]2C1=O` (single isomer, unassigned) [Example 13, N-((cis)-3-(5-chloro-2-cyanophenyl)cyclobutyl)-1-((R or S)-1-(5-methoxy-6-((1R,5S)-2-oxo-3-azabicyclo[3.1.0]hexan-3-yl)pyridin-3-yl)ethyl)-1H-pyrazole-4-carboxamide], the half-maximal inhibitory concentration (IC50) was 1 nM.

The record behind these values is US12528786B2, “Plasma kallikrein inhibitors” (Merck Sharp & Dohme LLC, priority 2020, dated 2026).
